Experimental data taken from US9381200B2, “Nitrogen containing compounds” (WOCKHARDT LIMITED, priority 2011, dated 2016).
Values after ≈ are worked out from the molar mass of the structure shown. Where two headings read alike, the source gives them in different places.

Key:
Format in all cases: cell-based
[1] = test system: E. coli M 50; assay: Antibacterial activity (MIC), agar dilution per CLSI
Procedure: (§1) The biological activity of representative compounds according to the invention against various bacterial strains was investigated. In a typical study, overnight grown bacterial cultures were diluted appropriately and inoculated on the agar media containing doubling dilutions of the test compounds. Observation for growth or no growth was performed after 16-20 hours of incubation at 35±2° C. in ambient air. The overall procedure was performed as per Clinical and Laboratory Standards Institute (CLSI) recommendations (Clinical and Laboratory Standards Institute (CLSI), Performance Standards for Antimicrobial Susceptibility Testing, 20th Informational Supplement, M 100-S20, Volume 30, No. 1, 2010).
(§2) The activities are expressed as MICs (mcg/ml).

[2] = test system: P. aeruginosa Ps 32; assay: Antibacterial activity (MIC) against MDR Gram negative strains; conditions: Pseudomonas aeruginosa, PS32
Procedure: as §1, §2

[3] = test system: E. Coli W 13353; assay: as above; conditions: Escherichia coli
Procedure: as §1, §2

[4] = test system: E. Coli W 13352; assay: as above; conditions: Escherichia coli
Procedure: as §1, §2

[5] = test system: P. aeruginosa Ps 21; assay: as above; conditions: Pseudomonas aeruginosa, PS21
Procedure: as §1, §2

[6] = test system: E. Coli M 3; assay: as above; conditions: Escherichia coli
Procedure: as §1, §2

[7] = test system: K. penumoniae S 48; assay: as above
Procedure: as §1, §2

[8] = test system: E. Coli M 44; assay: as above; conditions: Escherichia coli
Procedure: as §1, §2

[9] = test system: P. aeruginosa ATCC 27853; assay: as above; conditions: Pseudomonas aeruginosa, ATCC27853
Procedure: as §1, §2

[10] = test system: K penumoniae H 521; assay: as above
Procedure: as §1, §2

[11] = test system: E. Coli W 13351; assay: as above; conditions: Escherichia coli
Procedure: as §1, §2

[12] = test system: K penumoniae H 525; assay: as above
Procedure: as §1, §2

[13] = test system: E. Coli B 89; assay: as above; conditions: Escherichia coli
Procedure: as §1, §2

[14] = test system: K penumoniae H 523; assay: as above
Procedure: as §1, §2

[15] = test system: E. Coli H 484; assay: as above; conditions: Escherichia coli
Procedure: as §1, §2

[16] = test system: E. coli 7 MP; assay: Antibacterial activity (MIC), agar dilution per CLSI; conditions: Table 3, E. coli 7 MP expressing ESBL
Procedure: as §1
(§3) Table 3 details antibacterial activity of representative compounds according to the invention against various E. coli strains (NCTC 13351, M 50 and 7 MP) expressing ESBL (Extended Spectrum Beta Lactamases).

[17] = test system: E. coli NCTC 13351; assay: as above; conditions: 16-20 hours, 35±2° C.
Procedure: as §1, §3

[18] = Escherichia coli, M50, Table 4, E. Coli M 50, Class C ESBL, MDR, read-out: MIC
[19] = Table 5, P. aeruginosa Ps 32, read-out: MIC
[20] = Table 4, E. Coli W 13353, Class A ESBL, MDR, read-out: MIC
[21] = Table 4, E. Coli W 13352, Class A ESBL, MDR, read-out: MIC
[22] = Table 5, P. aeruginosa Ps 21, read-out: MIC
[23] = Table 5, E. Coli M 3, Class B ESBL, MDR, read-out: MIC
[24] = Table 5, K. penumoniae S 48, Class B ESBL, MDR, read-out: MIC
[25] = Table 5, E. Coli M 44, Class B ESBL, MDR, read-out: MIC
[26] = Table 5, P. aeruginosa ATCC 27853, read-out: MIC
[27] = Table 4, K penumoniae H 521, KPC ESBL, MDR, read-out: MIC
[28] = Table 4, E. Coli W 13351, Class A ESBL, MDR, read-out: MIC
[29] = Table 4, K penumoniae H 525, KPC ESBL, MDR, read-out: MIC
[30] = Table 4, E. Coli B 89, Class C ESBL, MDR, read-out: MIC
[31] = Table 4, K penumoniae H 523, KPC ESBL, MDR, read-out: MIC
[32] = Table 4, E. Coli H 484, Class C ESBL, MDR, read-out: MIC

MIC [1, 18] [µg/mL]	MIC [2, 19] [µg/mL]	MIC [3, 20] [µg/mL]	MIC [4, 21] [µg/mL]	MIC [5, 22] [µg/mL]	MIC [6, 23] [µg/mL]	MIC [7, 24] [µg/mL]	MIC [8, 25] [µg/mL]	MIC [9, 26] [µg/mL]	MIC [10, 27] [µg/mL]	MIC [11, 28] [µg/mL]	MIC [12, 29] [µg/mL]	MIC [13, 30] [µg/mL]	MIC [14, 31] [µg/mL]	MIC [15, 32] [µg/mL]	SMILES	other results
2 (≈ 5.1 µM)	> 32	2 (≈ 5.1 µM)	4 (≈ 10.2 µM)	> 32	1 (≈ 2.55 µM)	4 (≈ 10.2 µM)	4 (≈ 10.2 µM)	> 32	2 (≈ 5.1 µM)	4 (≈ 10.2 µM)	2 (≈ 5.1 µM)	2 (≈ 5.1 µM)	2 (≈ 5.1 µM)	8 (≈ 20.4 µM)	O=C(NNC(=O)[C@H]1CC[C@@H]2CN1C(=O)N2OS(=O)(=O)O)C1CNCCN1 (mixture of isomers) [Example 38, trans-sulfuric acid mono-[2-(N′—((RS)-piperazin-2-carbonyl)-hydrazinocarbonyl)-7-oxo-1,6-diaza-bicyclo[3.2.1]oct-6-yl]ester]	MIC ([1]; Escherichia coli, M50, Table 3, E. coli M 50 expressing ESBL, agar dilution, read-out: MIC): 2 µg/mL (≈ 5.1 µM); MIC ([16]; Escherichia coli, read-out: MIC): 8 µg/mL (≈ 20.4 µM); MIC ([17]; Escherichia coli, NCTC13351, Table 3, E. coli NCTC 13351 expressing ESBL, read-out: MIC): 4 µg/mL (≈ 10.2 µM)
> 32	8 (≈ 18.4 µM)	> 32	> 32	8 (≈ 18.4 µM)	> 32	> 32	> 32	2 (≈ 4.59 µM)	> 32	> 32	> 32	> 32	> 32	> 32	C[C@H]1[C@H](NC(=O)/C(=N\OC(C)(C)C(=O)O)c2csc(N)n2)C(=O)N1S(=O)(=O)O [Aztreonam, reference compound]	–
–	–	–	–	–	–	–	–	0.5 (≈ 1.51 µM)	32 (≈ 96.6 µM)	–	32 (≈ 96.6 µM)	–	8 (≈ 24.1 µM)	–	O=C(O)c1cn(C2CC2)c2cc(N3CCNCC3)c(F)cc2c1=O [Ciprofloxacin, reference compound]	–
–	–	–	–	–	–	–	–	–	–	–	–	–	–	–	NC(=O)c1cccc(C(=O)NNC(=O)C2CCC3CN2C(=O)N3OS(=O)(=O)[O-])n1.[Na+] (stereo not drawn) [Example 46, Sodium salt of trans-sulfuric acid mono-[2-(N′-(6-carboxamido-pyridin-2-carbonyl)-hydrazinocarbonyl)-7-oxo-1,6-diaza-bicyclo[3.2.1]oct-6-yl]ester]	MIC ([1]; Table 3, E. coli M 50 expressing ESBL, agar dilution): 64 µg/mL; MIC [16]: 128 µg/mL; MIC ([17]; Table 3, E. coli NCTC 13351 expressing ESBL): 32 µg/mL
0.5 (≈ 1.67 µM)	> 32	0.25 (≈ 0.835 µM)	0.25 (≈ 0.835 µM)	> 32	8 (≈ 26.7 µM)	16 (≈ 53.4 µM)	32 (≈ 107 µM)	4 (≈ 13.4 µM)	16 (≈ 53.4 µM)	0.25 (≈ 0.835 µM)	16 (≈ 53.4 µM)	0.5 (≈ 1.67 µM)	16 (≈ 53.4 µM)	4 (≈ 13.4 µM)	C[C@@H](O)[C@H]1C(=O)N2C(C(=O)O)=C(SCCN=CN)C[C@H]12 [Imipenem, reference compound]	–
–	–	–	–	–	–	–	–	–	–	–	–	–	–	–	CN(C)c1cc(NC(=O)CNC(C)(C)C)c(O)c2c1C[C@H]1C[C@H]3[C@H](N(C)C)C(O)=C(C(N)=O)C(=O)[C@@]3(O)C(O)=C1C2=O [Tigecyclin, Tigecycline, reference compound]	MIC ([1]; Escherichia coli, M50): 0.5 µg/mL (≈ 0.854 µM); MIC [2]: 16 µg/mL (≈ 27.3 µM); MIC [3]: 1 µg/mL (≈ 1.71 µM); MIC [4]: 0.25 µg/mL (≈ 0.427 µM); MIC [5]: 16 µg/mL (≈ 27.3 µM); MIC [6]: 4 µg/mL (≈ 6.83 µM); MIC [7]: 1 µg/mL (≈ 1.71 µM); MIC [8]: 0.25 µg/mL (≈ 0.427 µM); MIC [9]: 16 µg/mL (≈ 27.3 µM); MIC [10]: 2 µg/mL (≈ 3.41 µM); MIC [11]: 1 µg/mL (≈ 1.71 µM); MIC [12]: 2 µg/mL (≈ 3.41 µM); MIC [13]: 0.5 µg/mL (≈ 0.854 µM); MIC [14]: 8 µg/mL (≈ 13.7 µM); MIC [15]: 0.25 µg/mL (≈ 0.427 µM)
